The text below walks through data of patent US8785381B2 (Emisphere Technologies, Inc., priority 2003, dated 2014).

This series in a line: in vivo. The following applies: male, Sprague-Dawley, rat.

Each structure is given as a SMILES string.

By Cmax is commonly meant the highest concentration seen after dosing. In turn, `CC[C@H](C)[C@H](NC(=O)[C@H](Cc1ccccc1)NC(=O)[C@H](CCC(=O)O)NC(=O)[C@H](CCCCN)NC(=O)[C@H](C)NC(=O)[C@H](C)NC(=O)[C@H](CCC(N)=O)NC(=O)CNC(=O)[C@H](CCC(=O)O)NC(=O)[C@H](CC(C)C)NC(=O)[C@H](Cc1ccc(O)cc1)NC(=O)[C@H](CO)NC(=O)[C@H](CO)NC(=O)[C@@H](NC(=O)[C@H](CC(=O)O)NC(=O)[C@H](CO)NC(=O)[C@@H](NC(=O)[C@H](Cc1ccccc1)NC(=O)[C@@H](NC(=O)CNC(=O)[C@H](CCC(=O)O)NC(=O)[C@H](C)NC(=O)[C@@H](N)Cc1c[nH]cn1)[C@@H](C)O)[C@@H](C)O)C(C)C)C(=O)N[C@@H](C)C(=O)N[C@@H](Cc1c[nH]c2ccccc12)C(=O)N[C@@H](CC(C)C)C(=O)N[C@H](C(=O)N[C@@H](CCCCN)C(=O)NCC(=O)N[C@@H](CCCNC(=N)N)C(N)=O)C(C)C` [GLP-1] displayed a Cmax (1 ng/kg) of 0.0314 ng/mL; a Cmax (2 ng/kg) of 0.0324 ng/mL; a Cmax (3 ng/kg) of 0.0175 ng/mL; a Cmax (10 ng/kg) of 0.0171 ng/mL; a Cmax (50 ng/kg) of 0.153 ng/mL; a Cmax (0.5 mg/kg) of 27.9 ng/mL. This compound came in with a Cmax (500 μg/kg) of 0.106 ng/mL.
